From patent US12063914B2, “DNA sequence that increases odorant receptor representation in the olfactory system” (Research Foundation of the City University of New York, priority 2015, dated 2024)
Values belong to the molecule of their own block, whether it stands above or below them.

What was measured:
M71 = molecular target: T1, M71 (Mus musculus, UniProt Q60893); conditions: previous ex vivo data; liquid phase; cited from earlier work
T1 construct: from ex vivo analysis of genetically defined M71 OSNs in gene-targeted mice; host or cells: dendritic knobs of M71-expressing olfactory sensory neurons from gene-targeted mice
T1 sequence (Q60893 1-309): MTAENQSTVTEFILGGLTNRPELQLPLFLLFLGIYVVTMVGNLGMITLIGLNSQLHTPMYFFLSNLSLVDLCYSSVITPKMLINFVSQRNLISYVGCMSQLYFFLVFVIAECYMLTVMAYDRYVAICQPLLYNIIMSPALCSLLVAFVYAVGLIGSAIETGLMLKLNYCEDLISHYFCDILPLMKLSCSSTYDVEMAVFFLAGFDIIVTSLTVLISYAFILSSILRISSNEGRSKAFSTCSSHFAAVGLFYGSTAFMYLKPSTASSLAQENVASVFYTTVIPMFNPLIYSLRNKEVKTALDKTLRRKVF

[1] = at 25° C.; cited from earlier work
M71 OR = molecular target: T2, M71 OR (Mus musculus, UniProt Q60893); test: In vivo synaptophluorin (SpH) imaging of odor-evoked glomerular activity in 4•M71Cα mice; conditions: for glomerular activity (in vivo SpH imaging): 4•M71Cα animals, vapor phase, odor dilutions 0% to 15%; for average highest (dF/F)max: hemizygous 4•M71Cα animals, ACP at 1.77 uM, 24dMACP at 0.66 uM; for average highest (dF/F)max / highest efficacy [(dF/F)max]: 4MACP at 0.69 uM; for efficacy [(dF/F)max]: 0.71 uM; for efficacy [average (dF/F)max]: delivered at the same concentration, ˜0.70 uM; for response [(dF/F)max] at highest concentration delivered: 2.66 uM; for highest efficacy [(dF/F)max]: homozygous 4•M71Cα animals, ACP at 2.66 uM, 24dMACP at 0.46 uM
T2 construct: the increase of OSNs expressing the M71 OR results in the coalescence of labeled axons; expressed in transfected cells; host or cells: olfactory sensory neurons of living transgenic mice (4•M71Cα, 5•M71Cα), made by pronuclear injection of the M71 minigene
T2 sequence (Q60893 1-309): T1 sequence (Q60893 1-309)
Excerpt: Because the M71 OR is dorsally expressed in the olfactory bulb, any cloned OR using the M71 transgenic backbone will coalesce its axons onto dorsally located glomeruli, which makes them accessible for optical imaging. Optical imaging was therefore used to functionally characterize transgenic M71 projections in the OB. To examine their functional properties odor-evoked activity was imaged from the OBs of mice expressing the genetically encoded activity reporter SpH in all mature OSNs. Simultaneously recordings were obtained from mice that are either hemizygous or homozygous for 4•M71Cα (gene-targeted M71-GFP is out crossed) and heterozygous for SpH and identify red M71 glomeruli. Seven different M71-selective ligands were used from ex vivo analysis of genetically defined M71 OSNs in gene-targeted mice: three of these ligands produced responses by SpH imaging: Acetophenone (ACP), 4-methyl acetophenone (4MACP) and 2,4-dimethyl acetophenone (24dMACP) when delivered at different odor dilutions varying between 0% and 15%. The maximum change in fluorescence [(dF/F)max] per odor concentration was calculated for each compound over a 14 s trial period having a pre-odor (3 s), odor (4 s) and post-odor (4 s) acquisition. dF/F values for all glomeruli were calculated with a standardized 50 μm window, which is fully contained in all imaged glomeruli of both hemi and homo 4•M71Cα animals. (FIG. 2A, FIG. 2B and FIG. 2C: Each data point represents the average (dF/F). of 4-16 glomeruli imaged). […] All imaged mice are heterozygous for omp-SpH.
Olfactometry: Odors (purchased form Sigma Aldrich) were delivered using a custom built olfactometer controlled by an Arduino board with custom shields operating Teflon solenoids (Neptune Research) and connected to two Mass Flow Controllers (Alicat Scientific, Inc) to dilute the clean air (N2, max flow is 2 Lpm) and to dilute the odorized air (max flow is 300 SCCM). Nitrogen (N2) was used as the vapor carrier to avoid oxidation. Odor concentrations are expressed a % dilutions of saturated vapor and as molar saturated vapor concentration (μM s.v.), calculated using published vapor pressures at 25° Celsius (US EPA, Estimation Programs Interface Suite, v 4.0. Flow diluted odors were delivered at 2 Lpm mixed prior to the delivery site with air odorized with varying dilutions of odorant taken from the saturated headspace of pre-cleaned amber vials with white polypropylene closures and septum (J. G. Finneran) containing 99% pure odorants. To avoid contamination of the olfactometer, odorized air was never passed through the Teflon valves. Instead, odors were mixed with N2 in T-shaped mixing chambers (Neptune Research) and delivered to the animal's nose using an arduino controlled vacuum system. […] Output of the olfactometer was calibrated using the tracer odor Pinene and a photoionization detector (PID; Aurora Scientific).
In vivo SpH Imaging: Mice were anesthetized using Ketamine (100 mg/kg)/Xylazin (5 mg/kg) and maintained with Isoflurane (2.5% in 02) and immobilized using a stereotactic head holding device (Narishige, Inc.). Optical signals for SpH and mCherry were recorded using an ANDOR Neo 5.5 sCMOS camera connected to a NIKON AZ100 epifluorescence microscope (NIS Elements) with a 4× objective (numerical aperture 0.4). Excitation wavelengths of 475 nm for SpH and 575 nm for mCherry and emission of 520 nm for SpH and 635 nm for mCherry were used to obtain images of the dorsolateral bulb through thinned skull overlaying the bulb of a freely breathing animal. Each imaging trial consisted of a pre-odor (3 s), odor (4 s) and post-odor (4 s) acquisition, with a total acquisition time per trial of 14 s (including 3 s of valve switch delay). Using serial code, the arduino controlling the olfactometer was integrated in the NIS Elements software, so that the entire image acquisition sequence and flow-diluted odor delivery is controlled by the microscope software. […]

human OR1A1 receptor = molecular target: T3, human OR1A1 receptor (Homo sapiens, UniProt Q9P1Q5); test: Two-bottle behavioral avoidance task with (−)-Carvone in 5•OR1A1Cβ mice; format: in vivo, mouse
T3 construct: expressed in transfected cells; host or cells: olfactory sensory neurons of living 5•OR1A1Cβ hemizygous transgenic mice
T3 sequence (Q9P1Q5 1-309): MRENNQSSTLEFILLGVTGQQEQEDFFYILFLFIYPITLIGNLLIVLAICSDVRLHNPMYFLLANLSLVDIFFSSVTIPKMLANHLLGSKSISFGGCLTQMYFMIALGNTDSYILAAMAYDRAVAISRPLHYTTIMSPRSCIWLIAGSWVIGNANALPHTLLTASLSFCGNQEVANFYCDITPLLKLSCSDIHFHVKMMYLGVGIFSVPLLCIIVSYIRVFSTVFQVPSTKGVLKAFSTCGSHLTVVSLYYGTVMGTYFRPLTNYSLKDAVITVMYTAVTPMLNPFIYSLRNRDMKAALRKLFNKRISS
Excerpt: To further evaluate the versatility of this platform, the probability of choice of expression of a human OR was increased by cloning OR1A1 into the 5×21 M71 transgenic backbone. […] Again omp levels were not changed. Clearly, the representation of some ORs must be decreased to explain this equilibrium. In the 4•M71Cα homo animals, a mere 2-log increase in M71 RNA levels leads to a detectable 0.3-log change in threshold. Therefore, without wishing to be bound to any particular theory, it is believed that further increases in the neuronal representation of specific ORs may decrease detection thresholds even more. However, a delicate balance must exist between cell number and sensitivity. This hypothesis was tested using the established two-bottle behavioral avoidance task with the 5•OR1A1Cβ mice (FIG. 3B). Conditioning of 5•OR1A1Cβ hemi animals (n=12) was performed and their WT littermates (n=7) to water containing a 10-4 dilution of (−)-Carvone, a known OR1A1 ligand. For four consecutive days, animals were given the choice between plain water and water with decreasing (10-4, 10-6, 10-7 and 10-8) dilutions of (−) Carvone (FIG. 3C). Both groups (WT and Hemi) show clear aversion towards a 10^−4 dilution of (−)-Carvone (AVG PI WT=6.17% and AVG PI hemi=10.26%), reflecting successful conditioning. Both WT (AVG PI=55.52%) and Hemi (AVG PI=47.88%) cannot detect a 10^−8 dilution of (−)-Carvone. At 10^−6 and 10^−7 however, there is a clear difference in detection between WT and Hemi (10^−6: AVG PI WT=27.65% vs. AVG PI Hemi=11.41, Student's T-test p<0.01 and 10^−7: AVG PI WT=53.88% vs. AVG PI Hemi=30.24, Student's T-test p<0.05). […] These findings indicate that expressing OR1A1 in about 40% of the OSNs translates into a 2-log difference in (−)-Carvone detection thresholds.
Olfactory behavior test: A two-bottle discrimination test was performed as previously described. Since the mice are tested for the ability to detect a single odor in drinking water at increasingly lower concentrations, this discrimination assay is also considered a detection threshold test. Mice 8 weeks old were individually housed and given food ad libitum but restricted access to saccharin-phthalic acid solution (2.1×10^−2 M sodium saccharin and 10^−3M phthalic acid pH 6.5) for 1 h twice a day for two days before the assay begins. This ensures mice would commence drinking the solution during the conditioning. On day 3 (conditioning day) mice are exposed to sodium saccharine phthalic acid (SSPA) solution with 1 dilution of odorized water for 10 minutes. Immediately after, they are injected with lithium chloride intraperitoneally (15 μl/g body weight of a 0.6 M solution) to induce the aversive malaise and lethargy state. After two hours mice are returned to their home cage and given access to two bottles of drinking water; they are given the choice between SSPA solution containing a 10^−4 dilution of the odor versus the non-odorized SSPA solution. During the following 3 days, every 24 hours, the location of the bottles is reversed and the concentration of the odorized solution is decreased to 10^−6, 10^−7 and 0.5×10^−6, respectively. Every day both bottles are weighed to determine the amount of liquid consumed. A preference index was calculated as the amount of odorized solution consumed divided by the total amount of water solution consumed for each mouse for every 24 hour test period at each odor concentration. Student's t test was performed to test statistical significance, assuming two-tailed distribution and two-sample unequal variance. Values are mean±SEM and are plotted on a LOG scale.

Structure (SMILES): CCc1occc(=O)c1O [ethylmalthol]
- elicit a M71 response ex vivo (M71): did

Structure (SMILES): CC(=O)c1ccccc1 [ACP, Acetophenone]
- elicit a M71 response ex vivo (M71): did
- saturated vapor pressure (Ps) [1]: 0.3260 mmHg
- glomerular activity (in vivo SpH imaging) (M71 OR): observed
- average highest (dF/F)max (M71 OR): 3.49%
- efficacy [(dF/F)max] (M71 OR; hemizygous animals): 0.73%
- efficacy [average (dF/F)max] (M71 OR; hemizygous animals): 0.73%
- response [(dF/F)max] at highest concentration delivered (M71 OR; heterozygous (hemizygous) animals): 3.46%
- highest efficacy [(dF/F)max] (M71 OR): 4.57%
- efficacy [(dF/F)max] (M71 OR; homozygous animals): 3.00%
- response [(dF/F)max] at highest concentration delivered (M71 OR; homozygous animals): 4.57%

Structure (SMILES): O=Cc1ccccc1 [benzaldehyde]
- elicit a M71 response ex vivo (M71): did
- ex vivo responder grade (M71): low responder

Structure (SMILES): COC(=O)c1ccccc1 [methylbenzoate]
- elicit a M71 response ex vivo (M71): did not

Structure (SMILES): CC(C)[C@@H]1CC[C@@H](C)CC1=O [menthone]
- elicit a M71 response ex vivo (M71): did not

- glomerular activity (in vivo SpH imaging) (M71 OR): observed
- average highest (dF/F)max (M71 OR): 4.48%
- efficacy [average (dF/F)max] (M71 OR; hemizygous animals): 4.48%
- highest efficacy [(dF/F)max] (M71 OR): 3.82%
- average efficacy (of all concentrations and odors) (M71 OR; homozygous animals): 3.83%
Structure (SMILES): CC(=O)c1ccc(C)cc1 [4MACP, 4-methyl acetophenone]
- elicit a M71 response ex vivo (M71): did
- saturated vapor pressure (Ps) [1]: 0.0849 mmHg

Structure (SMILES): COc1ccc(C(C)=O)cc1 [4-metoxyacetophenone]
- elicit a M71 response ex vivo (M71): did
- ex vivo responder grade (M71): high responder
- saturated vapor pressure (Ps) [1]: 0.0133 mmHg
- glomerular activity (in vivo SpH imaging) (M71 OR): does not show glomerular activation

Structure (SMILES): NCC(=O)c1ccccc1 [2 amino acetophenone]
- elicit a M71 response ex vivo (M71): did

- difference in detection thresholds (human OR1A1 receptor; 5•OR1A1Cβ hemi vs WT): 2 log
- AVG PI (human OR1A1 receptor; 5•OR1A1Cβ hemi, 10^−4 dilution): 10.26%
- AVG PI (human OR1A1 receptor; 5•OR1A1Cβ hemi, 10^−6 dilution): 11.41
- AVG PI (human OR1A1 receptor; 5•OR1A1Cβ hemi, 10^−7 dilution): 30.24
- AVG PI (human OR1A1 receptor; 5•OR1A1Cβ hemi, 10^−8 dilution): 47.88%
- AVG PI (human OR1A1 receptor; WT littermates, 10^−4 dilution): 6.17%
- AVG PI (human OR1A1 receptor; WT littermates, 10^−6 dilution): 27.65%
- AVG PI (human OR1A1 receptor; WT littermates, 10^−7 dilution): 53.88%
- AVG PI (human OR1A1 receptor; WT littermates, 10^−8 dilution): 55.52%
Structure (SMILES): C=C(C)C1CC=C(C)C(=O)C1 (single isomer, unassigned; (-)) [(−)-Carvone]
